Measured values taken from patent US20250320215A1, “SALTS OF N-[4-(4-[[2-(DIMETHYLAMINO)ETHYL]AMINO]-3-METHYL-1H-PYRAZOLO[3,4-D]PYRIMIDIN-6-YL)-2-FLUOROPHENYL]-2,5-DIFLUOROBENZENESULFONAMIDE AND CRYSTALLINE FORMS THEREOF” (THRYV THERAPEUTICS INC, priority 2022, published 2025).

Test: Thermal treatment (heat-cool cycle by DSC, XRPD of resulting solids)
Assay type: physicochemical
Conditions: Heated to 130° C. at 10° C./min, and cooled to 25° C. at 5° C./min
Description: Compound 3, Form E was treated with heat-cool cycle by DSC. The resulted solids were characterized by XRPD. Compound 3, Form E, was converted to Compound 3, Form D after desolvation.
Compound 4 Form B was treated with heat-cool cycle by DSC. The resulted solids were checked by XRPD. […] The water was excluded at elevated temperature, then entered in the crystal lattice again at room temperature.
Compound 4 Form C and trace Form B was treated with heat-cool cycle by DSC. The resulted solids were checked by XRPD. The sample was converted to low crystalline (LC) Form B after heating to 175° C.
Compound 4 Form D was treated with heat-cool cycle by DSC. The resulted solids were checked by XRPD. The sample kept unchanged after heating to 140° C., but was converted to a new low crystalline form after heating to 210° C. which was assigned to Form F.

XRPD Resulting Form: Form B
SMILES: Cc1n[nH]c2nc(-c3ccc(NS(=O)(=O)c4cc(F)ccc4F)c(F)c3)nc(NCCN(C)C)c12 [Compound 4 Form B]
